Experimental data reported in ChEMBL document CHEMBL4359853, “Antiproliferative activity of (R)-4'-methylklavuzon on hepatocellular carcinoma cells and EpCAM+/CD133+ cancer stem cells via SIRT1 and Exportin-1 (CRM1) inhibition” (Eur J Med Chem, 2019).
pIC50: −log10 of the molar value. Calls of active or inactive are those of the source. The calls are words filed in the database; no cut-off is given here.

Legend:
HepG2 [1] = test: Cytotoxicity against human HepG2 cells assessed as reduction in cell viability after 48 to 72 hrs; assay type: functional, cell-based
HepG2 [2] = test: Induction of apoptosis in human 3D HepG2 spheroids measured after 24 hrs by propidium iodide staining based immunofluorescence microscopy analysis; assay type: functional, cell-based
Hep 3B2 = test: Cytotoxicity against human Hep3B cells assessed as growth inhibition; assay type: functional, cell-based
Huh-7 [3] = test: Cytotoxicity against human HuH7 cells assessed as reduction in cell viability measured after 72 hrs by MTT assay; assay type: functional, cell-based; details: Huh-7, 72 h
HepG2 [4] = test: Cytotoxicity against human HepG2 cells assessed as reduction in cell viability measured after 72 hrs by MTT assay; assay type: functional, cell-based; details: HepG2, 72 h
HepG2 [5] = test: Cytotoxicity against human HepG2 cells assessed as reduction in cell viability measured after 48 hrs by MTT assay; assay type: functional, cell-based; details: HepG2, 48 h
HepG2 [6] = test: Induction of apoptosis in human 3D HepG2 spheroids at 10 uM measured after 24 hrs by propidium iodide staining based immunofluorescence microscopy analysis; assay type: functional, cell-based
HepG2 [7] = test: Cytotoxicity against human HepG2 cells assessed as reduction in cell viability measured after 24 hrs by MTT assay; assay type: functional, cell-based; details: HepG2, 24 h
[8] = target: T1, NAD-dependent protein deacetylase sirtuin-1 (Homo sapiens) (UniProt Q96EB6); test: Inhibition of human recombinant SIRT1 at 100 uM using FLUOR DE LYS SIRT1, deacetylase as substrate preincubated for 2 mins followed by substrate addition measured after 1 hr in presence of NAD+ by fluorescence assay relative to control
T1 sequence (whole entry): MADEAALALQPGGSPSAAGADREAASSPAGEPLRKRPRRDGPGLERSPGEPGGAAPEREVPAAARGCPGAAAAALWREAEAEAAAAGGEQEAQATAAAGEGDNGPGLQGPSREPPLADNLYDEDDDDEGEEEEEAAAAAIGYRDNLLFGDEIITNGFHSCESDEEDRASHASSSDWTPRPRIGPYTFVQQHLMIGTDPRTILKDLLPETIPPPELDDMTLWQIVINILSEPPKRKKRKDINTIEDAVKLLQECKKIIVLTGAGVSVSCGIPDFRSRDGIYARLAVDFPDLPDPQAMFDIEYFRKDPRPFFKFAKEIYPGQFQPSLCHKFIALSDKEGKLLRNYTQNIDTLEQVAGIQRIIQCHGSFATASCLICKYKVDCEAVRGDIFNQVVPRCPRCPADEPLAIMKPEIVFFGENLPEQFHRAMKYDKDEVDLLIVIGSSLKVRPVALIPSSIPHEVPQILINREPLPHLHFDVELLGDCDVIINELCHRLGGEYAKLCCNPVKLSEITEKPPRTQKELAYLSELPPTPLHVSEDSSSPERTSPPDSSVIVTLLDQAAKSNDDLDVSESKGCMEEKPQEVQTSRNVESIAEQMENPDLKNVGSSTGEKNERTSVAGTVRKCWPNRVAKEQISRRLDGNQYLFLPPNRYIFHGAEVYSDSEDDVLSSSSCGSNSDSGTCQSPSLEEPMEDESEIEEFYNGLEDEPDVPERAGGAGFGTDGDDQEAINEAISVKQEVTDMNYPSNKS

[9] = target: T1, NAD-dependent protein deacetylase sirtuin-1 (Homo sapiens); test: Inhibition of human recombinant SIRT1 at 10 uM using FLUOR DE LYS SIRT1, deacetylase as substrate preincubated for 2 mins followed by substrate addition measured after 1 hr in presence of NAD+ by fluorescence assay relative to control
[10] = target: Exportin-1 (Homo sapiens) (UniProt O14980); test: Inhibition of CRM1 in human HuH7 cells assessed as accumulation of RIOK2 in nucleus at 1 and 10 uM measured after 24 hrs by DAPI staining based confocal microscopy analysis; assay type: cell-based
Sequence of Exportin-1 (Homo sapiens) (O14980 whole entry): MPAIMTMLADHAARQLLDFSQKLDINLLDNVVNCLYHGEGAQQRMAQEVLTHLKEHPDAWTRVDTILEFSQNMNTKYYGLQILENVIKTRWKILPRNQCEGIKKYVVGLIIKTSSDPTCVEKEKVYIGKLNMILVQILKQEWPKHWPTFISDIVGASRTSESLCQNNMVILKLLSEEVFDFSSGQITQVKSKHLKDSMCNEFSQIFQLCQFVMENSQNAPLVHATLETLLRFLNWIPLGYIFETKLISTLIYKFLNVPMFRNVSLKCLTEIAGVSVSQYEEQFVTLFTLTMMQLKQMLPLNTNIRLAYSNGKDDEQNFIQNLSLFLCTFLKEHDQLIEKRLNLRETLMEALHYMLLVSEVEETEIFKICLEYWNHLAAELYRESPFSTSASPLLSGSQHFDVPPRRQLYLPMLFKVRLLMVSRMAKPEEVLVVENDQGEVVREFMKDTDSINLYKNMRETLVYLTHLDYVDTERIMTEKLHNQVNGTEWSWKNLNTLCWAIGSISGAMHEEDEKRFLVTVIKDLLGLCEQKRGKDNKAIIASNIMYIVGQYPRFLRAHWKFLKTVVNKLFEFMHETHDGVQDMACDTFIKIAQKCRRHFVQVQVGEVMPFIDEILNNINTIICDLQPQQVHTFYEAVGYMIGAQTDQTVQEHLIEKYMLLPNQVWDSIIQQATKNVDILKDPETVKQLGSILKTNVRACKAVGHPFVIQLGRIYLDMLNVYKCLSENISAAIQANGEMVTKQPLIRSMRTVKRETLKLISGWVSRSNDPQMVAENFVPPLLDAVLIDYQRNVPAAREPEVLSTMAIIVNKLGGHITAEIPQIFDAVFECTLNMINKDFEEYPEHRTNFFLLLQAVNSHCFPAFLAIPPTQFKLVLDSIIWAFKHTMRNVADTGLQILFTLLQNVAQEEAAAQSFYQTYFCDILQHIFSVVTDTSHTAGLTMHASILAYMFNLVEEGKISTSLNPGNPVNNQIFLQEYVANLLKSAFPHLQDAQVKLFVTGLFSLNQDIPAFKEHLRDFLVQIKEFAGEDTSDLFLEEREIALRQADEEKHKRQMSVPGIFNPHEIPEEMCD

Huh-7 [11] = test: Cytotoxicity against human HuH7 cells assessed as reduction in cell viability measured after 24 hrs by MTT assay; assay type: functional, cell-based; details: Huh-7, 24 h
[12] = target: Exportin-1 (Homo sapiens) (UniProt O14980); test: Inhibition of CRM1 in human HuH7 cells assessed as accumulation of RIOK2 in nucleus at 0.1 to 10 uM measured after 6 hrs by DAPI staining based confocal microscopy analysis; assay type: cell-based
Huh-7 [13] = test: Cytotoxicity against human HuH7 cells assessed as reduction in cell viability measured after 48 hrs by MTT assay; assay type: functional, cell-based; details: Huh-7, 48 h

SMILES	pIC50 (HepG2 [1])	Activity (HepG2 [2])	pIC50 (Hep 3B2)	pIC50 (Huh-7 [3])	pIC50 (HepG2 [4])	pIC50 (HepG2 [5])	Activity (HepG2 [6])	pIC50 (HepG2 [7])	inhibition [8] [%]	inhibition [9] [%]	inhibition [10]	pIC50 (Huh-7 [11])	inhibition [12]	pIC50 (Huh-7 [13])
O=C1C=CC[C@H](/C=C/c2ccccc2)O1 [GONIOTHALAMIN]	5.60 to 6.20	Active	5.27											
O=C1C=CCC(c2cc3c(c4ccccc24)CCCC3)O1 (racemic)				5.90	7.00	6.20	Active	5.30	65	17	Active	5.30	Active	5.60
